The source of these data is paper PMC10574767, “Extractives from Artemisia afra with Anti-Bacterial and Anti-Fungal Properties” (Plants, 2023).

In brackets after ≈: the same amount, converted by molar mass.

The test system of series [1] is Candida albicans. Also on record: method as in PMID 19844829, PMID 35453556. Conditions: cited from earlier work.
For series [2], the system named is Staphylococcus aureus, Bacillus thuringiensis, Escherichia coli, Enterobacter cloacae, and Klebsiella pneumoniae. Also on record: method as in PMID 12120818. To be noted: 1 mg of compound; cited from earlier work.
Series [3] relates to HeLa. Set-up: method as in PMID 35453556, PMID 21294076. To be noted: cited from earlier work.
A short description of series [4]: in vitro. Conditions: monkey, LC50. On the procedure: Cytotoxicity of compounds and extracts was tested against mammalian cells using the MTT assay. MCF-7 cancer cells were grown in a 5% CO2 incubator in Dulbecco’s Modified Eagle’s Medium (DMEM, Highveld Biological, Johannesburg, South Africa) supplemented with 10% fetal calf serum (Adcock-Ingram, Johannesburg, South Africa) and 1% penicillin-streptomycin (10,000 U/mL and 10 mg/mL streptomycin, Sigma Aldrich). In a 5% CO2 incubator, Vero cells were grown in a minimal essential medium (MEM, Highveld Biological, South Africa) supplemented with 5% fetal calf serum (Adcock-Ingram) and 0.1% gentamicin (Virbac). Cell suspensions were obtained from 70–80% confluent monolayer cultures and were plated in 96-well cell culture plates at a density of 1 × 10^4. Plates were incubated in a 5% CO2 incubator for 24 h at 37 °C. The cells were exposed to the extracts or compounds dissolved in the media at different concentrations for 48 h. Positive and negative controls were doxorubicin (Pfizer, New York, NYC, USA) and acetone or DMSO, respectively. After that, the wells were rinsed with phosphate-buffered saline (PBS, Sigma) and 200 µL of fresh medium was poured into the wells. Thirty microlitres (5 mg/mL) of MTT (Sigma) dissolved in PBS was added to each well, and the plates were incubated at 37 °C for 4 h. The medium from the wells was removed, rinsed, and 50 µL of 100% DMSO was added to the wells. At a wavelength of 570 nm, absorbance was measured using a microplate reader (BioTek Synergy, Beijing, China). Each sample concentration was tested in quadruplicate in two repeats (n = 8), and the concentration causing 50% inhibition of cell viability (LC50) was calculated. Selectivity index (SI) values for the extracts/compounds were obtained by dividing cytotoxicity LC50 values of normal (Vero) cells by those of the cancer cells.

For series [5], the system named is MCF-7. Set-up: method as in PMID 35453556, PMID 21294076. Conditions: cited from earlier work.
Series [6] deals with A431 squamous carcinoma cell line. Also on record: method as in PMID 35453556, PMID 21294076. Conditions: cited from earlier work.
In series [7] the test system is Klebsiella pneumoniae. Also on record: method as in ref 36 = [36]; 36. Koay Y.C. Wong K.C. Hasnah O. Ibrahim E.M.S. Mohammad Z.A. Chemical constituents and biological activities of Strobilanthes crispus L. Rec. Nat. Prod. 2013 7 59 64. Conditions: cited from earlier work.
Series [8] concerns MRC-5. Also on record: method as in PMID 35453556, PMID 21294076. Conditions: cited from earlier work.
Series [9] deals with T. rubrum. Also on record: method as in PMID 19844829, PMID 35453556. Conditions: cited from earlier work.
In series [10] the test system is T. mentagrophytes. Set-up: method as in PMID 19844829, PMID 35453556. Conditions: cited from earlier work.
For series [11], the system named is Staphylococcus aureus ATCC 29213. The series is described as follows: Serial dilution microplate MIC. The format is cell-based. To be noted: Table 2.
The subject of series [12] is Enterococcus faecalis ATCC 29212. The series is described as follows: Serial dilution microplate MIC. Type of series: cell-based. Conditions: Table 2.
For series [13], the system named is Salmonella Typhimurium ATCC 39183. The series is described as follows: Serial dilution microplate MIC. Type of series: cell-based. To be noted: Table 2. The essentials:
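Triplicate serial dilution microplate method, acetone and DMSO as solvents; Mueller Hinton broth cultures adjusted to McFarland 1 (1 × 10^8 CFU/mL). Pure compounds tested at 250–3.9 μg/mL final, 24 h at 37 °C, then INT (0.2 mg/mL) for 2 h; MIC read visually as lowest concentration inhibiting growth.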

Series [14] deals with Pseudomonas aeruginosa ATCC 27853. The series is described as follows: Serial dilution microplate MIC. The format is cell-based. Conditions: Table 2.
The subject of series [15] is Escherichia coli ATCC 25922. The series is described as follows: Serial dilution microplate MIC. Type of series: cell-based. To be noted: Table 2.
The test system of series [16] is Candida albicans ATCC 10231. The series is described as follows: Serial dilution microplate MIC (fungi). Type of series: cell-based. To be noted: Table 2.

In the case of `CC1(C)CC[C@]2(C)CC=C3[C@]4(C)CC[C@H]5C(C)(C)[C@@H](O)CC[C@]5(C)[C@H]4CC[C@@]3(C)[C@@H]2C1` [Compound 3β-Taraxerol, 3β-taraxerol], the “MIC Candida albicans” value in [1] is 25 µg/mL (≈ 58.6 µM). In addition, the “Antimicrobial activity against two Gram-positive and three Gram-negative bacteria” value in series [2] is “moderate antimicrobial activity”. Moreover, in [3], the “Cytotoxicity HeLa” value was “inactive”. Also, the CC50 at 48 h in series [4] was above 200 µg/mL. In addition, the “Cytotoxicity MCF-7” value in series [5] was “inactive”. In addition, the “Cytotoxicity A431” value in [6] is recorded as 2.65 µg/mL. The “MIC Klebsiella pneumoniae” value in series [7] is recorded as 62.5 µg/mL (≈ 146 µM). The “Cytotoxicity MRC-5” value in series [8] was “inactive”. For the same compound, the “MIC T. rubrum” value in [9] is recorded as 12.5 µg/mL (≈ 29.3 µM). For the same compound, in [10], the “MIC T. mentagrophytes” value is on record as 12.5 µg/mL (≈ 29.3 µM). Also, the MIC in series [11] (Staphylococcus aureus, ATCC29213, isolated compounds, read-out: Minimum inhibitory concentration (MIC) S. aureus) is 250 µg/mL (≈ 586 µM); in series [12] (Enterococcus faecalis, ATCC29212, isolated compounds, read-out: Minimum inhibitory concentration (MIC) E. faecalis), above 250 µg/mL; in series [13] (Salmonella enterica, isolated compounds, read-out: Minimum inhibitory concentration (MIC) S. Typhimurium), 250 µg/mL (≈ 586 µM); in [14] (Pseudomonas aeruginosa, ATCC27853, isolated compounds, read-out: Minimum inhibitory concentration (MIC) P. aeruginosa) it was above 250 µg/mL; in series [15] (Escherichia coli, ATCC25922, isolated compounds, read-out: Minimum inhibitory concentration (MIC) E. coli), 250 µg/mL (≈ 586 µM); in series [16] (Candida albicans, ATCC10231, isolated compounds, read-out: Minimum inhibitory concentration (MIC) C. albicans), 250 µg/mL (≈ 586 µM). Further, the “Selectivity index S. aureus” value in series [11] (in brackets, Vero LC50 vs MIC) was above 0.8. Also, the “Selectivity index E. faecalis” value in [12] (in brackets, Vero LC50 vs MIC) is listed as below 0.8. In addition, the “Selectivity index S. Typhimurium” value in series [13] (in brackets, Vero LC50 vs MIC) was above 0.8. Further, the “Selectivity index P. aeruginosa” value in series [14] (in brackets, Vero LC50 vs MIC) is reported as below 0.8. In [15] (in brackets, Vero LC50 vs MIC), the “Selectivity index E. coli” value is reported as above 0.8. Besides, the “Selectivity index C. albicans” value in [16] (in brackets, Vero LC50 vs MIC) is recorded as above 0.8.
